This assay concerns T. mentagrophytes (TIMM1189). Put plainly: Antifungal Activity Test (Measurement of Minimum Inhibitory Concentration). The class given is cell-based. The conditions noted are these: Trichophyton mentagrophytes, 168 h, Sabouraud dextrose broth, 27° C., 1 week, visual determination, read-out: MIC (minimum concentration at which growth was completely inhibited). The protocol:
Antifungal activities of compounds according to the present invention against Trichophyton sp. were determined. Described specifically, T. mentagrophytes (TIMM1189) was cultured at 27° C. for 2 weeks on Sabouraud dextrose agar slants in advance, whereby it was allowed to form sufficient conidia. The conidia were washed in a sterilized physiological saline, which contained Tween 80 at a concentration of 0.05 wt./vol. %, by rubbing the conidia with a platinum loop, whereby the conidia were suspended. The suspension was filtered through a double-layer gauze so that only the conidia were collected in a form suspended in the physiological saline. The suspension was diluted to adjust the concentration of conidia to 1×10^5 conidia/ml, whereby a test fungus solution was obtained. Meanwhile, 4 mg of one of the test compounds were taken, to which 1 ml of dimethyl sulfoxide was added to prepare a stock. The stock was subjected to doubling dilution with ethanol to prepare diluted drug solutions. To each well of a 96-well microplate for tissue culture, 175 μl of Sabouraud dextrose broth, 5 μl of the corresponding drug solution and 20 μl of the test fungus solution were added. Subsequent to thorough mixing, the fungus strain was cultured at 27° C. for 1 week.

Molecules are shown by their SMILES. Values after ≈ are worked out from the molar mass of the structure shown.

For ten compounds, MIC results are on record in US6015925A, “Antifungal agents” (Pola Chemical Industries, Inc., priority 1998, dated 2000).

Take `CN(Cc1ccc(C(C)(C)C)cc1)Cc1ccccc1-c1ccccc1` [Compound 1, 4-tert-butyl-N-methyl-N-(2-phenylbenzyl)benzylamine]: the MIC was determined as 12.5 µg/mL (≈ 36.4 µM).
On to `CN(Cc1ccc(C(C)(C)C)cc1)Cc1cccc(-c2ccccc2)c1` [Compound 2, 4-tert-butyl-N-methyl-N-(3-phenylbenzyl)benzylamine], for which the MIC worked out at 25 µg/mL (≈ 72.8 µM).
Turning to `CN(Cc1ccc(-c2ccccc2)cc1)Cc1ccc(C(C)(C)C)cc1` [Compound 3, 4-tert-butyl-N-methyl-N-(4-phenylbenzyl)benzylamine], the MIC amounted to 12.5 µg/mL (≈ 36.4 µM).
For the compound `CN(Cc1ccc(C(C)(C)C)cc1)C(c1ccccc1)c1ccccc1` [Compound 4, 4-tert-butyl-N-diphenylmethyl-N-methylbenzylamine], the MIC came to 100 µg/mL (≈ 291 µM).
The result for `CN(C/C=C/C#CC(C)(C)C)Cc1ccccc1-c1ccccc1` [Compound 5, trans-N-(6,6-dimethyl-2-hepten-4-yn-1-yl)-N-methyl-2-phenylbenzylamine] reads 12.5 µg/mL (≈ 39.4 µM).
Turning to `CN(C/C=C\C#CC(C)(C)C)Cc1ccccc1-c1ccccc1` [Compound 6, cis-N-(6,6-dimethyl-2-hepten-4-yn-1-yl)-N-methyl-2-phenylbenzylamine], the MIC was determined as 100 µg/mL (≈ 315 µM).
On to `CN(C/C=C/C#CC(C)(C)C)Cc1cccc(-c2ccccc2)c1` [Compound 7, trans-N-(6,6-dimethyl-2-hepten-4-yn-1-yl)-N-methyl-3-phenylbenzylamine], for which the MIC came to 12.5 µg/mL (≈ 39.4 µM).
Take `CN(C/C=C\C#CC(C)(C)C)Cc1cccc(-c2ccccc2)c1` [Compound 8, cis-N-(6,6-dimethyl-2-hepten-4-yn-1-yl)-N-methyl-3-phenylbenzylamine]: the MIC stood at 12.5 µg/mL (≈ 39.4 µM).
For the compound `CN(C/C=C/C#CC(C)(C)C)Cc1ccc(-c2ccccc2)cc1` [Compound 9, trans-N-(6,6-dimethyl-2-hepten-4-yn-1-yl)-N-methyl-4-phenylbenzylamine], the MIC is 12.5 µg/mL (≈ 39.4 µM).
For the compound `CN(CC=CC#CC(C)(C)C)C(c1ccccc1)c1ccccc1` [Compound 11, N-(6,6-dimethyl-2-hepten-4-yn-1-yl)-N-methyl(diphenylmethyl)amine], the MIC stood at 100 µg/mL (≈ 315 µM).
